This note sets out measurements from patent publication US20130338217A1, “ANTIBIOTIC COMPOSITION INCLUDING PHLOROTANNIN COMPOUND DERIVED FROM EISENIA BICYCLIS AS EFFECTIVE COMPONENT” (PUKYONG NATIONAL UNIVERSITY INDUSTRY-UNIVERSITY C, priority 2012, published 2013).

In brackets after ≈: the same amount, converted by molar mass. Like-named read-outs stand apart in the source and are kept apart here.

Holding throughout (format): cell-based, Staphylococcus aureus
In one assay the test system is MSSA (KCTC 1927). As to the kind of experiment: Minimum inhibitory concentration, two-fold serial dilution, MSSA KCTC 1927. The procedure:
(§1) All the bacterial strains used for the Example were obtained from the Korean Collection of Type Cultures (KCTC; Daejeon, Korea) and the Korean Culture Center of Microorganisms (KCCM; Seoul, Korea). The bacterial strains used for the Example were methicillin-susceptible S. aureus (MSSA; KCTC 1927), two MRSA strains (KCCM 40510 and KCCM 40511). All strains were grown in Mueller-Hinton broth (MHB; Difco, Detroit, USA) or Tryptic soy broth (TSB; Difco) for minimum inhibitory concentration (MIC) assay and in Mueller-Hinton agar (MHA; Difco) for disc diffusion.
(§2) MIC means the lowest concentration of antimicrobials that will inhibit the visible growth of microorganisms after overnight incubation. MICS of the extracts and vancomycin were determined by the two-fold serial dilution method in MHB.

Assay [1] relates to MRSA (KCCM 40510). The experiment in a line: Minimum inhibitory concentration, two-fold serial dilution, MRSA KCCM 40510. How it is done:
as §1, §2

For assay [2], the system named is MRSA (KCCM 40511). The experiment in a line: Minimum inhibitory concentration, two-fold serial dilution, MRSA KCCM 40511. The procedure:
as §1, §2

For assay [3], the system named is MRSA (KCCM 40510). As to the kind of experiment: Checkerboard synergy of phlorofucofuroeckol-A and β-lactams, MRSA KCCM 40510. As to conditions: for FIC index (b): β-lactam with phlorofucofuroeckol-A at 12.5 μg/ml; for FIC index (b) / FIC index (c): synergism ≦0.5, indifference >0.5 to ≦4, antagonism >4; for FIC index (c): β-lactam with phlorofucofuroeckol-A at 25 μg/ml; for MIC: Staphylococcus aureus. The procedure:
(§3) The interaction between phlorofucofuroeckol-A (PFF) and β-lactams including ampicillin, penicillin and oxacillin against MRSA was tested by the checkerboard method. The synergistic effect was evaluated as a fractional inhibitory concentration (FIC) index. The FIC was calculated as the MICS of an antibiotic or phlorofucofuroeckol-A (PFF) in combination divided by the MIC of the antibiotic or PFF alone as follows.
(§4) The FIC was then summed to derive the FIC index, which indicated synergy when index values were as follows:
(§5) synergism ≦≦0.5, indifference >0.5 to ≦≦4, antagonism >4.
(§6) FICA=MICA in combination/MICA, FICB=MICB in combination/MICB

The next assay concerns MSSA (KCCTC 1927). The experiment in a line: Checkerboard synergy of phlorofucofuroeckol-A and β-lactams, MSSA KCTC 1927. As to conditions: for FIC index (b): β-lactam with phlorofucofuroeckol-A at 12.5 μg/ml; for FIC index (b) / FIC index (c): synergism ≦0.5, indifference >0.5 to ≦4, antagonism >4; for FIC index (c): β-lactam with phlorofucofuroeckol-A at 25 μg/ml; for MIC: Staphylococcus aureus, MSSA.

The subject of assay [4] is MRSA (KCCM 40511). As to the kind of experiment: Checkerboard synergy of phlorofucofuroeckol-A and β-lactams, MRSA KCCM 40511. As to conditions: for FIC index (b): β-lactam with phlorofucofuroeckol-A at 12.5 μg/ml; for FIC index (b) / FIC index (c): synergism ≦0.5, indifference >0.5 to ≦4, antagonism >4; for FIC index (c): β-lactam with phlorofucofuroeckol-A at 25 μg/ml; for MIC: Staphylococcus aureus. The procedure:
as §3, §4, §5, §6

The test system of the next assay is PBP2a. The experiment in a line: Western blot of PBP2a in MRSA. As to conditions: MRSA cells treated with various concentrations. The procedure: In order to elucidate the inhibitory effect of phlorofucofuroeckol-A on expression of a drug resistance related protein, PBP2a, MRSA cells were treated with various concentrations of phlorofucofuroeckol-A. After cell harvesting, the bacterial lysates were prepared in a lysis buffer containing 20 mM Tris-HCl (pH 7.5), 2 mM ethyleneglycoltetraacetic acid (EGTA), 2 mM ethylenediaminetetraacetic acid (EDTA) and 0.25 M sucrose. The pellets were resuspended by sonication in lysis buffer 2 times for 20 sec. Following 10 min of centrifugation at 13,000×g, the supernatant was obtained as the cell lysate. Protein concentrations were measured with Bradford protein assay. An equal amount of 2×SDS-PAGE sample buffer (pH […], 1 mM EGTA, 1 mM EDTA, 1% SDS, 150 mM NaCl) was added to the tubes containing the cell lysate and the tubes were boiled for 3 min. Aliquots of cellular proteins were then electrophoresed on 10%.
In general terms: Immunoblotting shows a protein as a band on a membrane.

A further assay deals with MRSA. As to the kind of experiment: Synergy of PFF with β-lactams against MRSA as stated in text. As to conditions: PFF 25 pg/mL as printed. How it is done:
as §3

Assay [5] relates to mec operon (mecA, mecI, mecR1). As to the kind of experiment: RT-PCR of drug resistance related genes in MRSA. As to conditions: MRSA cells treated with various concentrations. How it is done:
In order to elucidate the inhibitory effect of phlorofucofuroeckol-A on expression of drug resistance related genes, MRSA cells were treated with various concentrations of phlorofucofuroeckol-A. After cell harvesting, Total RNA was isolated from the strains with zirconia beads and RNAwiz with the manufacturer's specifications. RNA concentrations were estimated via spectrophotometer at 260 nm. The 0.2-1.4 μg of total RNA plus 1.4 μg of random primer was denatured at 65° C. for 5 min, then cooled at 30 sec and preincubated for 2 min at 37° C. after the addition of 10 mM dithioothreitol (DTT), 2.5 mM each of dNTPs, and reaction buffer. Any remaining cRNA was removed via the addition of 2 units RNase H at 37° C. for 20 min. One hundred units of Superscript II reverse transcriptase were added and incubated for 50 min at 37° C. The reaction was then suspended at 70° C. for 15 min. One point five percent of the RT products were added to a PCR reaction which included PCR buffer (pH 8.4, 20 mM Tris, 50 mM KCl), 1.5 mM MgCl2, 0.5 mM dNTPs, 2 pM primers and 0.1 μL Taq DNA polymerase. Twenty-eight PCR cycles were then conducted follows: denaturation at 95° C. annealing at an indicated temperature for each primer and extension at 72° C. […]

The mark [6] stands for this setting: Table 6, isolated phlorotannins.
[7] abbreviates: in combination with phlorofucofuroeckol-A at 12.5 μg/ml.
The mark [8] stands for this setting: in combination with phlorofucofuroeckol-A at 25 μg/ml.
Where [9] appears, read: Table 5, PFF and β-lactams, mecA negative strain.
The mark [10] stands for this setting: Table 5, PFF and β-lactams, mecA positive strain.
[11] abbreviates: in combination with phlorofucofuroeckol-A at 12.5 μg/ml, read-out: MIC of β-lactam (B).
The mark [12] stands for this setting: in combination with phlorofucofuroeckol-A at 25 μg/ml, read-out: MIC of β-lactam (C).
Setting [13] is: without phlorofucofuroeckol-A, read-out: MIC of β-lactam (A).
Where [14] appears, read: Staphylococcus aureus, Table 5, PFF and β-lactams, mecA positive strain, read-out: MIC.
Setting [15] is: Staphylococcus aureus, Table 6, isolated phlorotannins, read-out: MIC.

PBP2a, sequence (P07944 whole entry): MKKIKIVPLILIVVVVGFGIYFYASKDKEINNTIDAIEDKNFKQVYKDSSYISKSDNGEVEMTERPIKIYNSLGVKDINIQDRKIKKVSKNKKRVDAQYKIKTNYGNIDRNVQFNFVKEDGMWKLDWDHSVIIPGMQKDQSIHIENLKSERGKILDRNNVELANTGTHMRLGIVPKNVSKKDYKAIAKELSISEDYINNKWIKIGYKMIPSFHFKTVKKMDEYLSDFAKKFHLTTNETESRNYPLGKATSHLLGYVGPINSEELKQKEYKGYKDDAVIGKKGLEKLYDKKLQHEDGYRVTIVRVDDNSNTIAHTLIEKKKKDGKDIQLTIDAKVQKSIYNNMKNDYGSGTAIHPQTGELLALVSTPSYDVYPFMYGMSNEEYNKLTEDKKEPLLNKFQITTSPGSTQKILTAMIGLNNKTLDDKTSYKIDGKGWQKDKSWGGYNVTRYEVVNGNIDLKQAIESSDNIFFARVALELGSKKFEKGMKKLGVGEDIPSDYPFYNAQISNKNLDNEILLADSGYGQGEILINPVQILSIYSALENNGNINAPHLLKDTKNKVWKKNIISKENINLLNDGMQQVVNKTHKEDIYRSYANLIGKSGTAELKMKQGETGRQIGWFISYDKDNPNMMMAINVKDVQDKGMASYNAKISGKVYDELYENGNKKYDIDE

On to fucofuroeckol-A [FF], for which the MIC is 32 µg/mL against MSSA (KCTC 1927) (setting [6]), 64 µg/mL in the assay on MRSA (KCCM 40510) [1] (setting [6]) and 64 µg/mL in the assay on MRSA (KCCM 40511) [2] (setting [6]).

As to penicillin, the entries for the “MIC of β-lactam (B)” value in the assay with MRSA (KCCM 40510) [3] (setting [7]), in the assay with MSSA (KCCTC 1927) (setting [7]) and in the assay on MRSA (KCCM 40511) [4] (setting [7]) were 4 µg/mL, 0.125 µg/mL and 1 µg/mL, respectively. Besides, the results for the “MIC of β-lactam (C)” value with MRSA (KCCM 40510) [3] (setting [8]), in the assay with MSSA (KCCTC 1927) (setting [8]) and with MRSA (KCCM 40511) [4] (setting [8]) were 2 µg/mL, 0.125 µg/mL and 0.5 µg/mL, respectively. For the same molecule, the figures for the “MIC of β-lactam (A)” value with MRSA (KCCM 40510) [3] (without phlorofucofuroeckol-A), with MSSA (KCCTC 1927) (without phlorofucofuroeckol-A) and with MRSA (KCCM 40511) [4] (without phlorofucofuroeckol-A) were 512 µg/mL, 0.125 µg/mL and 256 µg/mL, respectively. For the same molecule, the results for the “FIC index (b)” value in the assay on MRSA (KCCM 40510) [3], in the assay on MSSA (KCCTC 1927) and in the assay on MRSA (KCCM 40511) [4] were 0.399, 1.391 and 0.395, respectively. Moreover, the “FIC index (c)” value was 0.395 in the assay on MRSA (KCCM 40510) [3], 1.781 in the assay on MSSA (KCCTC 1927) and 0.393 with MRSA (KCCM 40511) [4]. Also, the MIC with MSSA (KCTC 1927) (setting [9]) was 0.125 µg/mL; in the assay on MRSA (KCCM 40510) [1] (setting [10]) it was 512 µg/mL; in the assay with MRSA (KCCM 40511) [2] (setting [10]) it was 256 µg/mL.

As to `Cc1onc(-c2ccccc2)c1C(=O)N[C@@H]1C(=O)N2[C@@H]1SC(C)(C)[C@@H]2C(=O)O` [Oxacillin, oxacillin], the MIC with MRSA (KCCM 40510) [3] (setting [11]) is 8 µg/mL; with MRSA (KCCM 40510) [3] (setting [12]), 4 µg/mL; in the assay with MRSA (KCCM 40510) [3] (setting [13]) it was 256 µg/mL; in the assay on MSSA (KCCTC 1927) (setting [11]), 0.063 µg/mL; in the assay on MSSA (KCCTC 1927) (setting [12]) it was 0.063 µg/mL; with MSSA (KCCTC 1927) (setting [13]), 0.063 µg/mL. Besides, the MIC with MSSA (KCTC 1927) (Staphylococcus aureus, Table 5, PFF and β-lactams, mecA negative strain, read-out: MIC) worked out at 0.063 µg/mL (≈ 0.157 µM); with MRSA (KCCM 40511) [4] (setting [11]), 1 µg/mL; in the assay on MRSA (KCCM 40511) [4] (setting [12]) it was 0.5 µg/mL; with MRSA (KCCM 40511) [4] (setting [13]), 128 µg/mL; in the assay with MRSA (KCCM 40510) [1] (setting [14]) it was 256 µg/mL (≈ 638 µM); in the assay with MRSA (KCCM 40511) [2] (setting [14]), 128 µg/mL (≈ 319 µM). The “FIC index (b)” value in the assay on MRSA (KCCM 40510) [3] was found to be 0.422; in the assay on MSSA (KCCTC 1927), 1.391; with MRSA (KCCM 40511) [4] it was 0.399. In addition, the entries for the “FIC index (c)” value in the assay on MRSA (KCCM 40510) [3], in the assay with MSSA (KCCTC 1927) and in the assay on MRSA (KCCM 40511) [4] were 0.407, 1.781 and 0.395, respectively.

Consider `Oc1cc(O)cc(Oc2c(O)cc(O)c3c2Oc2c(O)cc(O)cc2O3)c1` [EK, eckol], for which the MIC in the assay on MSSA (KCTC 1927) (setting [15]), in the assay on MRSA (KCCM 40510) [1] (setting [15]) and with MRSA (KCCM 40511) [2] (setting [15]) was 64 µg/mL (≈ 172 µM) each time.

Turning to phlorofucofuroeckol A [PFF], the MIC with MSSA (KCTC 1927) (setting [9]), with MSSA (KCTC 1927) (setting [6]), in the assay with MRSA (KCCM 40510) [1] (setting [10]), in the assay with MRSA (KCCM 40510) [1] (setting [6]), with MRSA (KCCM 40511) [2] (setting [10]) and in the assay on MRSA (KCCM 40511) [2] (setting [6]) was 32 µg/mL in each case. The “PBP2a synthesis (protein expression)” value in the assay with PBP2a is on record as “inhibited a PBP2a synthesis that is a final product of mecA gene depending on the concentrations”. Further, in the assay with MRSA, the “effect on the MICs of the β-lactams against MRSA” value is recorded as “remarkably reduce the MICS of the β-lactams against MRSA”. Also, the “gene transcription of mec operon (mecA, mecI, mecR1)” value in [5] is reported as “inhibited the gene transcription of mec operon (mecA, mecI, mecR1) involving in synthesizing PBP2a depending on the concentrations”.

Broadly, the MIC is the least concentration at which growth counts as inhibited.
